The values below come from US11344534B2, “Cholinergic agonism for the treatment of pancreatic cancer” (priority 2017, dated 2022).

Structures are written as SMILES. “Also recorded” adds a separate entry of the source.

Experiment [1] relates to Panc02 liver metastases. Put plainly: Panc02 liver metastatic model (splenic injection, hemi-splenectomy). Type of experiment: in vivo, mouse. The source says:
A metastatic mouse model of pancreatic cancer has been developed. The procedure reported by Lei Zheng has been modified and involves resecting half the spleen followed by injection 2×10^6 Panc02 (or other PDAC cell lines) into the spleen (4, 5). (FIG. 3A, B). Mice are then sacrificed 30-60 days later. […] In combination with this metastatic model of pancreatic cancer, a surgical approach to achieve selective cholinergic denervation of the liver has been developed. This involves identifying and isolating the hepatic branch of the vagal nerve, followed by resection of the hepatic branch (FIG. 3E, F).
In additional preliminary studies, the effects of bethanechol on the progression of liver metastases and in survival were examined. […] There were 5-8 mice in each group.
Then, it was examined whether the direct parasympathetic signal influences the metastatic lesions. The liver is a major site of metastatic spread for pancreatic cancer as well as many other solid tumors, and many patients with advanced PDAC eventually die with liver metastases. In order to investigate the role of parasympathetic signaling on the growth of liver metastasis, a well established syngeneic model of metastatic pancreatic cancer (Soares et al. 2014) was utilized. […] Moreover, to confirm that the parasympathetic pathway directly regulated tumor cells at the liver metastatic site, expression of Ki67, CD44 and pEGFR was analyzed.
Liver metastatic model procedure was performed previously described. (Soares K C et al. 2014) Briefly, a left subcostal incision was performed along the line with the left ear and the spleen was exposed through the incision. The spleen was divided into upper and lower spleen by placing two Horizon medium size ligating clips in the center of the spleen. 150 μl of phosphate buffered saline was drawn up into a 27 G×⅝″ syringe and 100 μl of Panc02 (2×10^6) cells was also drawn up into the same syringe and the cells were injected slowly into the exposed lower-hemispleen. Lower hemisplenectomy was performed by ligating pancreas spleen vessel and cutting above.
However, given that many PDAC patients with metastatic disease (Stage IV) eventually die with liver metastases, the effect of parasympathetic signaling on the growth of hepatic lesions was examined utilizing a well-established syngeneic model of metastatic PDAC^32. […] Moreover, to confirm that the parasympathetic pathway directly regulated tumor cells at the liver metastatic site, expression of Ki67 (FIGS. 12H-K), p-EGFR (FIGS. 12L-O) and CD44 (FIGS. 12P-S) were analyzed immunohistochemically. […]

In experiment [2] the test system is murine PDAC cell lines (Panc02, K8282). Kind of experiment: MTT assay, murine PDAC cell lines. The note with it: agonist added to antagonist. The format is cell-based, mouse.
Experimental: Cell proliferation in each cell line was assessed with a 3-(4,5-dimethylthiazol-2yl)-2,5-diphenyltetrazolium bromide (MTT) assay kit (Sigma) in accordance with the manufacturer's instructions. 3×10^3 cells were grown in 96-well plate to around ˜70% confluent, changed the 0.5% FBS medium, added the drugs respectively and incubated them for further 72 hrs incubation in a typical CO2 incubator (˜20% O2). Treated cells were rinsed twice with PBS, incubated in 10 ll MTT solution for 4 hr at 37° C., and 100 uL DMSO was added to each well. The absorbance of each well was measured at 570 nm using Tilter-Tech 96-well multiscanner (Becton Dickinson, Heidelberg, Germany). The relative number of viable cells compared with the number of cells without drug treatment was expressed as percent cell viability using the following formula:
Cell proliferation in each cell line was assessed with a 3-(4,5-dimethylthiazol-2yl)-2,5-diphenyltetrazolium bromide (MTT) assay kit (Sigma) in accordance with the manufacturer's instructions. 3×10^3 cells were grown in 96-well plate to ˜70% confluency, the media was changed to 0.5% FBS medium, the respective drugs were added, and they were incubated for an additional 72 hours in a CO2 incubator (˜5% CO2). Treated cells were rinsed twice with PBS, incubated in 10 ul MTT (5 mg/ml PBS) solution for 4 hours at 37° C., and 100 uL DMSO was then added to each well. The absorbance of each well was measured at 570 nm using a Tilter-Tech 96-well multiscanner (Becton Dickinson, Heidelberg, Germany). The relative number of viable cells compared with the number of cells without drug treatment was expressed as percent cell viability using the following formula: cell viability (%)=A570 of treated cells/A570 of untreated cells.
In experiment [3] the test system is CHRM1. Put plainly: qRT-PCR of muscarinic receptor expression, human PDAC cell lines. The note with it: human PDAC cell lines (MiaPaca2 and Panc1), compared to control. The format is cell-based. (In qPCR the cycle at which signal appears reflects the starting amount.)
The subject of experiment [4] is Chrm1. Put plainly: qRT-PCR of muscarinic receptor expression, murine PDAC cell lines. The format is cell-based, mouse. The note with it: murine PDAC cell lines (Panc02 and K8282), compared to control.
For experiment [5], the system named is Panc1 cells. Put plainly: RNAseq of Panc1 cells after pilocarpine treatment. The format is cell-based, human. The procedure: Panc1 cells were lysed in RNA lysis buffer supplied in […] PicoPure RNA isolation kit (Life Technologies)(n=4). Total RNA was isolated in accordance with the manufacturer's protocol. cDNA was amplified and libraries were constructed by using SMARTer Ultra Low Input RNA Kit (Clontech Laboratories) and Nextera XT DNA Library Preparation Kit (Illumina) according to the respective manufacturer's instructions. Sequencing was performed with Hiseq 2500 (Illumina) (30 M 100 bp single end reads per sample). Sequenced reads were mapped to the NCBI annotated genes of the […] with BowTie2 and TopHat 2.0.4^5, 6. Reads were counted with HTSeq. Expression datasets were deposited in the Gene Expression Omnibus (GEO)^7 (GSE102880 code: armlggayprundsh). Samples were normalized with the TMM algorithm. The statistical significance of differential expression was estimated with weighted Limma-Voom^8, 9 which runs under Bioconductor/R^10-12. […] First, a screen in terms of Gene Ontology^14 categories for consistency with phenotype was performed. Genes were retained which either: 57 genes fulfilled these requirements, these genes were analyzed further in terms of KEGG pathways^15 with iPathwayGuide^16, 17

Experiment [6] deals with human Panc1 cells. Put plainly: Western blot of EGFR/MAPK and PI3K/AKT signaling, Panc1. The format is cell-based. In general terms: Immunoblotting shows a protein as a band on a membrane.
Experimental: To analyze EGFR and the MAPK and PI3K-Akt pathway in human and murine pancreatic cancer cell lines, cells were grown in 12-well plate to around ˜70% confluent, changed the 0.5% FBS medium, added the drugs respectively and incubated them for further 72 hrs incubation in a typical CO2 incubator (˜20% O2). After removing the medium, cells were washed twice with PBS, and protein extraction was performed on ice using RIPA buffer with protease inhibitor (Complete) (Roche) cocktail and phosphatase inhibitor (phosSTOP) (Roche). Protein samples were subsequently separated in 10% Bis-Tris Gel NuPAGE® electrophoresis using MES SDS Running Buffer (Invitrogen, CA, USA). After transfer to nitrocellulose, membranes were blocked with 5% BSA, and samples were probed with the following primary antibodies: p-EGFR (Cell Signaling), EGFR (Cell Signaling), p-BRAF (Cell Signaling), BRAF (Cell Signaling), p-ERK1/2 (phosphorylated p44/42 MAPK) (Thr202/Tyr204) (Cell Signaling), ERK1/2 (p44/42 MAPK) (Thr202/Tyr204) (Cell Signaling), p-PI3K (Cell Signaling), PI3K (Cell Signaling), p-Akt (Cell Signaling), Akt (Cell Signaling), and β-actin (Cell Signaling) followed by horseradish peroxidase-coupled secondary antibody. Immunoreactive bands were visualized using 5-bromo-4-chloro-3-indolyl phosphate/nitro blue tetrazolium and bands were quantified with ImageJ.
To analyze EGFR, MAPK and PI3K-AKT pathways in human and murine pancreatic cancer cell lines, cells were grown in 12-well culture plates to ˜70% confluency. The medium was then changed to 0.5% FBS medium, the respective drugs were added, and they were incubated for an additional 72 hours in a CO2 incubator (˜5% CO2). After removing the medium, cells were washed twice with PBS, and protein extraction was performed on ice using RIPA buffer with protease inhibitor (Complete, Roche) cocktail and a phosphatase inhibitor (phosSTOP, Roche). Protein samples were subsequently separated by 10% Bis-Tris Gel NuPAGE® electrophoresis using MES SDS Running Buffer (Invitrogen, CA, USA). After transfer to nitrocellulose, membranes were blocked with 5% BSA, and samples were probed with the following primary antibodies: p-EGFR (Cell Signaling), EGFR (Cell Signaling), p-BRAF (Cell Signaling), BRAF (Cell Signaling), p-ERK1/2 (phosphorylated p44/42 MAPK) (Thr202/Tyr204) (Cell Signaling), ERK1/2 (p44/42 MAPK) (Thr202/Tyr204) (Cell Signaling), p-PI3K (Cell Signaling), PI3K (Cell Signaling), p-AKT (Cell Signaling), AKT (Cell Signaling), and β-actin (Cell Signaling) followed by horseradish peroxidase-coupled secondary antibody. Immunoreactive bands were visualized using 5-bromo-4-chloro-3-indolyl phosphate/nitro blue tetrazolium and bands were quantified with ImageJ.
Experiment [7] has as its system primary human PDA organoids. Kind of experiment: Primary human PDA organoids treated with pilocarpine. The format is cell-based. The note with it: dose-dependent, 100DM pilocarpine in FIG. 21B. The source says: To better understand the effect of growth inhibition by muscarinic agonists in human pancreatic epithelial cells, we generated primary human PDA organoids. Treatment with the broad muscarinic agonist, pilocarpine, reduced the number of viable organoids in a dose-dependent manner (FIGS. 21A-B). Treatment of human pancreatic cancer cells (Panc1) with pilocarpine reduced the size of the CD44+CD24+EpCAM+putative cancer stem cell population in a dose dependent manner (FIG. 21C) and inhibited tumor initiation in NOD/SCID mice (FIG. 21D). To better understand growth inhibition by muscarinic agonists, we analyzed changes in signaling molecules in animal models and PDA cell lines. […] Surprising, a number of signaling molecules were suppressed by both nonspecific and M1R-specific muscarinic agonists, including EGFR, B-RAF, ERK1/2, PI3K, and AKT kinase. These kinases all show reduced phosphorylation by muscarinic agonists, which was abrogated by treatment with muscarinic antagonists. Finally, we analyzed Panc-1 cells following pilocarpine treatment (1 mM, 72 hrs) using RNAseq, and noted that many of the genes suppressed by pilocarpine included EGFR and PI3K^17.

Where [8] appears, read: Panc02 liver metastatic model, at necropsy.
The mark [9] stands for this setting: Panc02 liver metastatic model, bethanechol vs untreated control.
The mark [10] stands for this setting: Panc1 cells, pilocarpine, preliminary analysis.
[11] abbreviates: Panc-1 cells treated with pilocarpine.

In the case of `CC(C[N+](C)(C)C)OC(N)=O` (centres unmarked) [bethanechol, 2-[(aminocarbonyl)oxy]-N,N,N-trimethyl-1-propanaminium], in experiment [1] (setting [8]), the “(maximum) tumor volume” value is given as “inhibited” and the number of tumors entry was “inhibited”. Moreover, the survival in experiment [1] (Panc02 liver metastatic model, bethanechol in drinking water, controls 29 days) was found to be 41 days. Further, in experiment [1] (setting [9]), the “survival (in words)” value was “significantly longer; also recorded: extend; also recorded: significantly prolonged” and the tumor growth result is reported as “inhibited; also recorded: suppressed”. Further, the “immunohistochemical markers: Ki67, C44, F4/80, nerves (peripherin or neurofilament), phospho-EGFR and phosphor-PI3K” value in experiment [1] (after bethanechol treatment) is reported as “decreased”. Further, the “expression of Ki67, p-EGFR and CD44 in liver metastases” value in experiment [1] (bethanechol group vs untreated control) is on record as “significantly decreased; also recorded: suppression”. In addition, in experiment [1] (mice, bethanechol treatment), the “reduction in Ki-67 staining of Panc02 liver mets” value is 50%.

Turning to `CC[C@@H]1C(=O)OC[C@@H]1Cc1cncn1C` [pilocarpine, (3S,4R)-3-ethyl-4-[(3-methylimidazol-4-yl)methyl]oxolan-2-one], the “increase in proliferation due to muscarinic antagonists” value in experiment [2] is recorded as “blocked; also recorded: inhibited to some extent”. The Chrm1 expression result in experiment [3] is listed as “decreased; also recorded: lower”. Moreover, in experiment [4], the Chrm1 expression result is “decreased; also recorded: lower”. For the same compound, the “expression of growth related genes EGFR and PI3K (RNAseq)” value in experiment [5] (Panc1 cells, pilocarpine 1 mM, 72 hrs) is on record as “suppressed”. For the same compound, the “expression of PIK3CA(PI3K), EGFR, KDR(RTK), ITGAV(ITGA), NTRKB(TRKB) and BRAF(RafB) (RNAseq, KEGG pathways)” value in experiment [5] (Panc1 cells, pilocarpine treated vs untreated) is on record as “downregulated”. Also, in experiment [5] (setting [10]), the “expression of BDNF and NGF” value is “moderately decreased”; the “expression of TRK-B receptor (NTRK2)” value is given as “one of the most downregulated genes”. In experiment [5] (setting [11]), the “expression of BRAF, EGFR, PIK3CA, ITGAV, KDR, and FOXO3 (RNAseq)” value is given as “downregulation”; the “expression of STK11 and FOX06 (RNAseq)” value is listed as “upregulation”. Also, the “phosphorylation of EGFR, BRAF, ERK1/2, PI3K and AKT kinases (western blot)” value in experiment [6] (72 hours) is recorded as “significantly less phosphorylated”. For the same compound, the “ratios of p-EGFR/EGFR, p-BRAF/BRAF, p-ERK/ERK, p-PI3K/PI3K and p-AKT/AKT (densitometry)” value in experiment [6] (single agent alone) is reported as “significantly decreased”. The “number of viable organoids” value in experiment [7] is reported as “reduced”.
